Test results: patent publication US20080081078A1, “Prevention of Cell Proliferation by Inhibiting Myosin Light Chain Kinase” (The Board of Trustees of the University of Illinois, priority 2006, published 2008)
Read-outs that look alike come from different tables or passages of the source.

Legend:
[1] = test system: MLL rat prostate cancer cells; experiment: Annexin V / PI flow cytometry apoptosis assay in MLL (MatLyLu) cells; format: cell-based
Procedure: (§1) The Mm5MT mouse mammary adenocarcinoma cancer cell line was obtained from American Type Culture Collection (ATCC, Manassas, Va., USA) and was maintained in DMEM medium supplemented with 10% fetal bovine serum (FBS) and 100 U/ml penicillin, 100 μg/ml streptomycin. The MatLy-Lu (MLL) sub-line of the Dunning R-3327 prostate adenocarcinoma (graciously provided by B. Lokeshwar, University of Miami) (Lokeshwar et al., Int. J. Cancer 2002; 98:297-309) was maintained in RPMI1640 medium supplemented with 10% FBS, 250 nM dexamethasone, 100 U/ml penicillin and 100 μg/ml streptomycin.
(§2) Mm5MT or MLL cells (200,000 cells per well) were seeded in 6-well dishes one day before drug treatment and cultured as described above. On the day of the experiment, media was changed to DMEM supplemented with 0.5% FBS and the cells were treated with drugs as defined by the specific experimental protocol. ML-7 (Biomol, Plymouth Meeting, Pa.) was incubated with cells for 16 h when used alone. When used in combination with etoposide, ML-7 was added to cells 2 h before adding the indicated concentration of etoposide (Calbiochem, La Jolla, Calif.) and the cells were incubated with ML-7 and etoposide for an additional 16 h. The cells were then treated with trypsin, washed twice with cold PBS and re-suspended in 100 μl of buffer containing 10 mM Hepes, pH 7.4, 140 mM NaCl and 2.5 mM CaCl2 (binding buffer). Then, 5 μl of FITC-conjugated annexin V (Pharmingen, San Diego, Calif.) and 10 μl of propidium iodide (PI) (50 μg/ml) were added and cells were incubated in the dark at room temperature for 15 min. Next, 400 μl of binding buffer was added per sample and the cells were analyzed cytofluorometrically using a Coulter Epics Elite ESP flow cytometer (Ex: 488 nm, Em: 585 nm). At least 10,000 cells were counted per analysis and cells that stained positive for annexin V and PI were judged to be apoptotic.
(§3) Cells were grown in culture dishes in Dulbecco's Modified Eagle Medium (Gibco BRL, Gaithersburg, Md.) supplemented with 10% FBS and 1% penicillin and streptomycin. […] The floating and attached cells were combined and analyzed using conventional methods.
(§4) To quantify apoptosis, cells were washed twice with cold PBS, resuspended in 100 μl of 10 mM Hepes, pH 7.4, 140 mM NaCl, 2.5 mM CaCl2 (Binding Buffer). […] After incubation, 400 μl of binding buffer was added per sample and cells were analyzed cytofluorimetrically using a Coulter Epics Elite ESP flow cytometer (excitation wavelength: 488 nm, emission wavelength: 585 nm). At least 10,000 cells were counted per analysis and cells that stained positive for Annexin V and PI were considered apoptotic.
Cells were collected 16 h after adding etoposide and apoptosis was quantified by FACS analysis.

[2] = test system: Mm5MT cells
Procedure: To investigate the anticancer activity of ML-7 in vivo, Mm5MT cells grown in culture were harvested immediately before injection into syngeneic MMTV-C3H/HeN mice. Cells were washed to remove serum and 10^6 cells were resuspended in 100 μl of serum-free DMEM. Healthy, MMTV-free female mice (14-20 weeks old) were anesthetized with ether and 10^6 cells were injected subcutaneously into the right flank. The mice were randomly divided into four groups of five mice each, and treated with vehicle, ML-7, etoposide or ML-7 plus etoposide. […] To deliver ML-7, a small horizontal incision was made in the interscapular area and a 200 μl osmotic pump (Alzet, Cupertino, Calif.) filled with either 27 mM ML-7 in 50% DMSO or 50% DMSO (vehicle control) was implanted and the wound closed. When given, 25 mg/kg etoposide was injected intraperitoneally on the first 3 days of every week for 4 weeks (days 7-9, 14-16, 21-23 and 28-30). The mice were sacrificed with ether after 4 weeks of drug administration and tumors were removed, weighed and processed for analysis.
Excised tumors were gently patted dry and weighed using a Mettler digital balance. Tumors were sectioned into 2 mm slices, fixed in 10% neutral buffered formalin, routinely processed and embedded in paraffin. […] Photomicrographs documenting the entire section were collected and areas of necrotic and viable tumor were determined using the manual tracing tools within MetaMorph 6.2 (Universal Imaging Corporation, Downingtown, Pa.).

[3] = test system: MLC-P; experiment: MLC-P by urea/glycerol gel immunoblotting in Mm5MT cells; format: cell-based, mouse; details: 10 μM ML-7, 30 μM etoposide or both, 16 h
Procedure: MLC-P protein was measured by urea/glycerol gel immunoblotting. Mm5MT or MLL cancer cells in 6-well plates were treated with ML-7 (10 or 5 μM, respectively) or etoposide (30 μM) or combination of two at indicated concentrations for 16 h. MLC-P in cancer cells was then quantified by the urea/glycerol gel-immunoblotting method. Briefly, cancer cells were fixed in 10% trichloroacetic acid (TCA) containing 10 mM dithiothreitol (DTT). Cell pellets were washed four times with acetone and protein was extracted by dissolving in buffer containing 9 M urea, 10 mM DTT and 20 mM Tris, pH 8.0. […] This antibody recognizes the unphosphorylated and phosphorylated forms of MLC20. Immunoreactive bands were visualized using enhanced chemiluminescence (ECL) detection reagents (Amersham Pharmacia Biotech, Piscataway, N.J.).
MLC-P was measured by urea/glycerol gel-immunoblotting as described above. Un and P identify unphosphorylated and phosphorylated MLC20, respectively. […] This experiment was repeated four times and the data from a representative experiment is shown.

[4] = test system: Mm5MT mouse mammary cancer cells; experiment: Annexin V / PI flow cytometry apoptosis assay in Mm5MT cells; format: cell-based
Procedure: as §1
as §2, with “Then, 5 μl of FITC-conjugated annexin V (Pharmingen, San Diego, Calif.) and 10 μl of propidium iodide (PI) (50 μg/ml) were added and cells were incubated in the dark at room temperature for 15 min.” left out
as §3, §4
The combined effects of ML-7 and etoposide to induce apoptosis in mouse Mm5MT mammary cancer cells was determined by pre-treating cells with vehicle (FIG. 9, open bar) or 10 μM ML-7 (shaded bar) for 2 h. Varying concentrations of etoposide (1-1000 μM) were then added and apoptosis was quantified 16 h later. […]

With `COc1cc([C@@H]2c3cc4c(cc3[C@@H](O[C@@H]3O[C@@H]5CO[C@@H](C)O[C@H]5[C@H](O)[C@H]3O)[C@H]3COC(=O)[C@H]23)OCO4)cc(OC)c1O` [etoposide] the EC50 ([1]; MLL cells, no ML-7 (FIG. 15), read-out: concentration of etoposide required for inducing apoptosis in 50% of the cells) was 376 µM, the EC50 ([1]; MLL cells, with 5 μM ML-7 pre-treatment (FIG. 15), read-out: concentration of etoposide required for inducing apoptosis in 50% of the cells) was 68 µM and the EC50 ([1]; MatLyLu cells, etoposide alone (FIG. 7), read-out: half-maximal concentration for producing apoptosis) was about 410 µM. The EC50 ([1]; MatLyLu cells, etoposide plus 5 μM ML-7 (FIG. 7), read-out: half-maximal concentration for producing apoptosis) was about 40 µM, the “tumor necrosis (histology)” value ([2]; FIG. 14B) was “Limited areas of necrosis” and the tolerability ([2]; mouse, in vivo) was “without visible signs of discomfort”. The tumor growth ([2]; single agents vs vehicle, only the etoposide effect statistically significant) was “decreased tumor growth”, the MLC-P [3] was “decreased MLC-P” and the EC50 ([4]; etoposide alone, extrapolation (FIG. 8), read-out: concentration of etoposide required to induce apoptosis in 50% of the cells) was about 300 µM. The EC50 ([4]; minus ML-7, curve fitting (FIG. 9), read-out: concentration of etoposide required for inducing apoptosis in 50% of the cells) was 572 µM, the EC50 ([4]; plus 10 μM ML-7 (2 h pre-treatment), curve fitting (FIG. 9), read-out: concentration of etoposide required for inducing apoptosis in 50% of the cells) was 25.4 µM and the EC50 ([4]; plus ML-7 (10 μM), extrapolation (FIG. 8), read-out: concentration of etoposide required to induce apoptosis in 50% of the cells) was about 20 µM.
